Measured values reported in patent US10639306B2, “Aldose reductase inhibitors and uses thereof” (The Trustees of Columbia University in the City of New York, priority 2010, dated 2020).
Read-outs that look alike come from different tables or passages of the source.

Legend:
[1] = Solubility in Krebs-Henseleit buffer; assay type: physicochemical; conditions: Krebs-Henseleit buffer with glucose, palmitate, bovine serum albumin, insulin
[2] = target: human recombinant aldose reductase (Homo sapiens, UniProt P15121); experiment: biochemical
Protocol: The reductase activity of Compound A and zopolrestat were spectrophotometrically assayed by following the decrease of NADPH at 25° C. for 4 min as described in Sato, S. (1992), “Rat kidney aldose reductase and aldehyde reductase and polyolproduction in rat kidney” Am. J. Physiol. 263, F799.F805, incorporated by reference herein in its entirety.
Briefly, the reaction mixture (total volume 1 ml) contained 0.1 mM NADPH, 100 mM substrate (DL-glyceraldehyde or L-xylose) and human recombinant aldose reductase (100 mU) in 0.1 M phosphate buffer, pH 6.2. The head to head experiment was carried out in a microplate assay for AR inhibition using D-Glyceraldehyde and NADPH and the absorbance changes were monitored at 340 nm and % inhibition was calculated for ARIs at concentrations ranging from 0.1 nM to 100 μM (Table 2 and FIG. 2). Data is presented as mean±standard deviation and is an average of 5 separate runs. The reaction was started by adding the substrate (glyceraldehyde or xylose) as well as the same reaction mixture in which the substrate replaced by deionized water was used as a control. One enzyme unit (U) was defined as the activity consuming 1 μmole of NADPH per min at 25° C.

[3] = assay type: physicochemical; conditions: for Area (integration of absorbance peak): 3 min, pH 7.1
Protocol: Each sample of Compound A & zopolrestat were placed, separately, in water (MQW ultra nanopure) at ambient temperature and vortexed for 3 minutes. The aliquots were then filtered through a tightly-packed cotton plug (placed in a pipette) to remove any residual solids. The attempted concentrations of the respective solutions of Compound A and zopolrestat made were 0.05 mg/mL, 0.1 mg/mL, 0.5 mg/mL, 1.0 mg/mL, 5.0 mg/mL, and 10.0 mg/mL. The pH of the water used was 7.1 (measured electronically by an Orion perpHect LogR Meter Model #370).
The filtered samples were run through a binary gradient (program: 5%-100% MeCN over 30 mins) on a LC-MS (Shimadzu LCMS-2010A Liquid Chromatography Mass Spectrometer, reverse-phase column). A 5 μL volume of each sample solution was injected for each run. Each trace contained a peak (for Compound A, TR approx. 14.070 mins; for zopolrestat, TR approx. 16.666 mins) measured at a wavelength of 254 nm for which the respective parent ion masses were observed.
By comparing the absorbance areas under the peaks corresponding to Compound A & zopolrestat in each water solution made (Table 1), a solubility curve for each compound was generated (FIG. 1).

melting point [°C] | Structure (SMILES) | Solubility in Krebs-Henseleit buffer [1] | IC50 [2] [nM] | Activity relative to zopolrestat in vitro against aldose reductase ([2]; fold more active than zopolrestat) | Solubility in pH 7.1 water relative to Zopolrestat [3] | Area (integration of absorbance peak) ([3]; 0.05 mg/mL) | Area (integration of absorbance peak) ([3]; 0.1 mg/mL) | Area (integration of absorbance peak) ([3]; 0.5 mg/mL) | Area (integration of absorbance peak) ([3]; 1 mg/mL) | Area (integration of absorbance peak) ([3]; 5 mg/mL) | Area (integration of absorbance peak) ([3]; 10 mg/mL) | inhibition at 1 pM [2] [%] | inhibition at 10 pM [2] [%]
196 to 197 | O=C(O)Cc1nn(Cc2nc3cc(Cl)ccc3s2)c(=O)c2nccnc12 |  |  |  |  |  |  |  |  |  |  |  | 
 | O=C(O)Cc1nn(Cc2nc3cc(C(F)(F)F)ccc3s2)c(=O)c2nccnc12 [Compound A, 2-(8-oxo-7-((5-(trifluoromethyl)benzo[d]thiazol-2-yl)methyl)-7,8-dihydropyrazino[2,3-d]pyridazin-5-yl)acetic acid] | soluble without any precipitation or turbidity | 0.0289 | approximately 100 × | significantly greater solubility | 1811131 | 3221003 | 5814304 | 10515430 | 17216187 | 20397336 |  | 
 | O=C(O)Cc1nn(Cc2nc3cc(C(F)(F)F)ccc3s2)c(=O)c2ccccc12 [zopolrestat, reference compound] | heat was applied to render zopolrestat soluble |  |  |  | 1039247 | 1899466 | 4304556 | 6129559 | 13314544 | 13362465 | 11 | 29
